{"source": "ChEMBL document CHEMBL1201862", "about": "“PubChem BioAssay data set” (2004)", "key": {"[1]": {"assay": "toxicity toward HepG2 liver cells – cell-based, plate reader, cherry-pick, antagonist series, cytotoxicity control, dose response (AID 743416)", "type": "functional"}, "[2]": {"assay": "alpha-synuclein stem-loop luciferase translation blockers – H4 neuroglioma cells, luminescence, confirmation (AID 1988)", "type": "functional, cell-based"}, "[3]": {"assay": "Luminescence Cell-Based Dose Response HTS to Identify Inhibitors of 5'UTR Stem-Loop Driven Prion Protein mRNA Translation in H4 Neuroglioblastoma Cells. [Related pubchem assays: 1827 (Project Summary), 1813 (Primary HTS)]", "type": "functional"}, "[4]": {"assay": "luciferase reporter signal suppression in cells – H4 neuroglioma cells, luminescence, dose response (AID 1990)", "type": "functional, cell-based"}, "[5]": {"assay": "blockers of bursicon-stimulated LGR2 cAMP reporter – cell-based, HEK293, CRE-luciferase reporter, cherry pick, set 2, dose response (AID 743343);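 also: transfected cells were stimulated with diluted bursicon conditioned medium after compound addition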", "type": "functional"}, "[6]": {"assay": "viability loss in HEK293 cells – cell-based, plate reader, cherry-picked samples, cytotoxicity control, dose response (AID 743446)", "type": "functional"}, "[7]": {"assay": "blockade of melanocortin 4 receptor signaling – cell-based, plate reader, cherry pick, counter-screen for LGR2 antagonist project, dose response (AID 743444);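 also: transfected HEK 293 cells stimulated with alpha-MSH peptide; potency of inhibitors of the alpha-MSH evoked signal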", "type": "functional"}, "[8]": {"assay": "A549 cell cytotoxicity, dose response, cytotoxicity control, plate reader, cherry-pick, antagonist series (AID 743412)", "type": "functional, cell-based"}, "Albumin": {"molecular_target": "Albumin (Bos taurus, UniProt P02769)", "sequence (P02769 whole entry)": "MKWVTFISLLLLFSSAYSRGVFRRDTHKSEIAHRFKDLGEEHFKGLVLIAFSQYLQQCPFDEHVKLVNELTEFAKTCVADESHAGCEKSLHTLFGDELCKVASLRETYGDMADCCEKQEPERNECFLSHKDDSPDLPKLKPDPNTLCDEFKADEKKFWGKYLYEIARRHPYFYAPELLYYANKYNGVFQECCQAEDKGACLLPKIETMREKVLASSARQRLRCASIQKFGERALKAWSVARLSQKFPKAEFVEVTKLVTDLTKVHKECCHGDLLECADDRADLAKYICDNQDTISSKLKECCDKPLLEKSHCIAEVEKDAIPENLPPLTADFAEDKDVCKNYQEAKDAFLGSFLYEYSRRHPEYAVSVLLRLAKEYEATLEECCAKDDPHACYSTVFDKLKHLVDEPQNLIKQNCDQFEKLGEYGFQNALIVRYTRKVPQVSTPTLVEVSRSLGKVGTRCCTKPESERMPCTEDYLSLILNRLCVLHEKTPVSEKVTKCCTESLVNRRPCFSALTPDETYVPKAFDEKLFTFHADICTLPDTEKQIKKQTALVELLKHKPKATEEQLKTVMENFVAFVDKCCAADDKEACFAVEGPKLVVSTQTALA", "assay": "Counterscreen for inhibitors of T-cell receptor (TCR)-CD3 interaction: Fluorescence-based biochemical high throughput dose response assay to identify inhibitors of T-cell receptor (TCR)-CD3 interaction using a TAMRA-labeled BSA probe.", "type": "functional"}, "[9]": {"assay": "loss of viability in HepG2 cells – cell-based, CellTiter-Glo, cherry-picked, cytotoxicity control for Shn3 inhibitor project, dose response (AID 624134)", "type": "functional"}, "[10]": {"molecular_target": "T1, Endoribonuclease toxin MazF (Escherichia coli K-12, UniProt P0AE70)", "T1 sequence (P0AE70 whole entry)": "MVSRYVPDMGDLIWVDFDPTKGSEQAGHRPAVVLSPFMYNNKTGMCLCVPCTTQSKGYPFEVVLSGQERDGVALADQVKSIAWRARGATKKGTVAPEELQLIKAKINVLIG", "assay": "activation of MazEF endoribonuclease cleavage – biochemical, fluorescence, single-stranded RNA substrate, uHTS hits, dose response (AID 588481)", "type": "functional"}, "[11]": {"molecular_target": "T1, Endoribonuclease toxin MazF", "assay": "substrate-only fluorescence increase artefacts – biochemical, single-stranded RNase substrate, counter-screen for MazEF activator project, dose response (AID 588502)", "type": "functional"}, "[12]": {"molecular_target": "T2, Oxysterols receptor LXR-beta (Homo sapiens, UniProt P55055)", "T2 sequence (P55055 whole entry)": "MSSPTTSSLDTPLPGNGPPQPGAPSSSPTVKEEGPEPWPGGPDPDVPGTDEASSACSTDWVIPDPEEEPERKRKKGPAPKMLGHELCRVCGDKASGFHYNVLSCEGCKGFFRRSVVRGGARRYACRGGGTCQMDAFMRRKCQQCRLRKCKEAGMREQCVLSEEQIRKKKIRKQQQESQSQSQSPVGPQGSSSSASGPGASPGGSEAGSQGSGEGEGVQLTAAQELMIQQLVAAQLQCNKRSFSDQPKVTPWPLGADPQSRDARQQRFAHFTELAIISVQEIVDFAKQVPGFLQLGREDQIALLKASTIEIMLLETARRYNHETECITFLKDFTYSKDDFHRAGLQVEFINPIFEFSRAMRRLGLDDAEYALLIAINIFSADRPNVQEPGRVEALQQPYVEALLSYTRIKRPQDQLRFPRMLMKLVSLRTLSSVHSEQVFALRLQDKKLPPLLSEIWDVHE", "type": "functional, cell-based"}, "[13]": {"molecular_target": "T3, DNA repair protein RAD52 homolog (Homo sapiens, UniProt P43351)", "T3 sequence (P43351 whole entry)": "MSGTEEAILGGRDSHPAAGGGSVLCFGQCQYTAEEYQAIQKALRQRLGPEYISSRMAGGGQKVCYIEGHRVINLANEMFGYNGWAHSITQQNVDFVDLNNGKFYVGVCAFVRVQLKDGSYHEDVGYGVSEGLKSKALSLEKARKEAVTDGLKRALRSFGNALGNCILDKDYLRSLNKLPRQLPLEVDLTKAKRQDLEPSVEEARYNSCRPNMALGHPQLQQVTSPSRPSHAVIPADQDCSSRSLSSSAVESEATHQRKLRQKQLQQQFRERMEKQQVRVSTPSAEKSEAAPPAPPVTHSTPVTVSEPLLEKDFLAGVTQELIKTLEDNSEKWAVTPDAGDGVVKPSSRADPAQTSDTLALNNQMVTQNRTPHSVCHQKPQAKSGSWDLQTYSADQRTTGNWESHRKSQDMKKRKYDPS", "type": "functional, biochemical"}, "[14]": {"molecular_target": "T4, Trace amine-associated receptor 1 (Homo sapiens, UniProt Q96RJ0)", "T4 sequence (Q96RJ0 whole entry)": "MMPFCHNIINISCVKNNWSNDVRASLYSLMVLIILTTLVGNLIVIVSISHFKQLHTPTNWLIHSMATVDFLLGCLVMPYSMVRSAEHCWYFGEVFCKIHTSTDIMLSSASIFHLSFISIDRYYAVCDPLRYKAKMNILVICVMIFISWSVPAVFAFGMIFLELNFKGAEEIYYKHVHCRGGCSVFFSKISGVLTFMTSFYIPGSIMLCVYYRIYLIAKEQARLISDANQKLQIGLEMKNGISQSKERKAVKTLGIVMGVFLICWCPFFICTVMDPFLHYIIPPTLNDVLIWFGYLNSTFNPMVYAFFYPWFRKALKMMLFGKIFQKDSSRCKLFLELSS", "assay": "Counterscreen for agonists of the human trace amine associated receptor 1 (hTAAR1): Fluorescence-based cell-based high throughput dose response assay to identify hTAAR1 agonist that also desensitize TAAR1 receptor response.", "type": "functional"}, "cells [15]": {"assay": "cells", "type": "functional, cell-based"}, "[16]": {"molecular_target": "T4, Trace amine-associated receptor 1", "assay": "Fluorescence-based cell-based high throughput dose response assay to identify agonists of the human trace amine associated receptor 1 (TAAR1).", "type": "functional"}, "cells [17]": {"assay": "cells", "type": "functional, cell-based", "remark": "listed apart in the source"}, "[18]": {"assay": "P. falciparum Dd2 growth inhibitors, dose response, SYBR Green, cherry-picked samples (AID 1159567)", "type": "functional, cell-based"}, "[19]": {"assay": "toxicity to human hepatoma HepG2 cells – cell-based, cherry-picked samples, cytotoxicity control, dose response (AID 1159577)", "type": "functional"}, "[20]": {"assay": "viability loss in human Jurkat cells – cell-based, luminescence, cytotoxicity control for P. falciparum gametocyte viability project, dose response (AID 1117277);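 also: potency reflects loss of cellular ATP meaning fewer viable cells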", "type": "functional"}, "[21]": {"assay": "viability inhibitors of stage V gametocytes – luminescence, dose response (AID 1117278);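 also: gametocytes exposed to compound for 24 hours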", "type": "functional, cell-based"}, "[22]": {"molecular_target": "T5, Tyrosine-protein phosphatase non-receptor type 7 (Homo sapiens, UniProt P35236)", "T5 sequence (P35236 whole entry)": "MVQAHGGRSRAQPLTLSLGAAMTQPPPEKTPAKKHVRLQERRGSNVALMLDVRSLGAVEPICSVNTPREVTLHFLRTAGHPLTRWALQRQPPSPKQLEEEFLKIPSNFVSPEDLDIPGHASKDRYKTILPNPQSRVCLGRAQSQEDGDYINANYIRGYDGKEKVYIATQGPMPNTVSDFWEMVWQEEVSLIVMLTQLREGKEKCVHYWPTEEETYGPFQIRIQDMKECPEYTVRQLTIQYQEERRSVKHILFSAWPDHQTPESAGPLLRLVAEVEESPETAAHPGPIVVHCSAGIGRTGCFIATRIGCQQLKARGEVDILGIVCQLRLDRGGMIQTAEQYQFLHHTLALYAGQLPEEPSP", "assay": "HePTP tyrosine phosphatase activity blockers – biochemical, absorbance, leukemia target, primary screen (AID 521)", "type": "functional"}, "Leucine aminopeptidase": {"molecular_target": "T6, Leucine aminopeptidase (Plasmodium falciparum 3D7, UniProt Q8IL11)", "T6 sequence (Q8IL11 whole entry)": "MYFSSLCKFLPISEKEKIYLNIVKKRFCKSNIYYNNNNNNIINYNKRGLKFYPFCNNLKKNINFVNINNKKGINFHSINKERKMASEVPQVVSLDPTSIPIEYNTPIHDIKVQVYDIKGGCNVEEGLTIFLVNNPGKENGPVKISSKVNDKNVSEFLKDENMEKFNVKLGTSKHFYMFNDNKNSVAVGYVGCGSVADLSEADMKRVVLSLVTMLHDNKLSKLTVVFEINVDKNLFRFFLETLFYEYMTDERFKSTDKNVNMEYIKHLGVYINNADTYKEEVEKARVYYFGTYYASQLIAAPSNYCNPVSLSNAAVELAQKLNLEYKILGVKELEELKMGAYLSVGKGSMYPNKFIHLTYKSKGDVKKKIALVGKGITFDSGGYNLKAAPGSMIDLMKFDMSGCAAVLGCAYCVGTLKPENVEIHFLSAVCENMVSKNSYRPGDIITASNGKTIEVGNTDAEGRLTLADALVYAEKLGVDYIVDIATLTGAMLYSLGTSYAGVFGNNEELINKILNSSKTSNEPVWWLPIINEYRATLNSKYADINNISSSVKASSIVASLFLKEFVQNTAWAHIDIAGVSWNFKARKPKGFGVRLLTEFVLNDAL", "assay": "P. falciparum M17LAP inhibitors, primary screen, biochemical, fluorogenic H-Leu-NHMec substrate, 1536-well (AID 1619)", "type": "functional"}}, "note": "Calls of active or inactive are those of the source."}
{"smiles": "COc1ccc2cc3cc(C(=O)NC4CC4)sc3nc2c1", "values": [{"measurement": "AC50", "setting": "[1]", "result": "> 52 µM (inactive)"}, {"measurement": "EC50", "setting": "[2]", "result": "5.41 µM (active)"}, {"measurement": "EC50", "setting": "[3]", "result": "7.47 µM (active)"}, {"measurement": "EC50", "setting": "[4]", "result": "6.66 µM (inconclusive)"}, {"measurement": "AC50", "setting": "[5]", "result": "3.86 µM (active)"}, {"measurement": "AC50", "setting": "[6]", "result": "> 52 µM (inactive)"}, {"measurement": "AC50", "setting": "[7]", "result": "4.27 µM (active)"}, {"measurement": "AC50", "setting": "[8]", "result": "29.1 µM (active)"}]}
{"smiles": "O=C1/C(=C/Nc2ccccc2O)c2ccccc2C(=O)N1c1nccs1", "values": [{"measurement": "IC50", "setting": "Albumin", "result": "> 94.1 µM (inactive)"}, {"measurement": "AC50", "setting": "[9]", "result": "> 70 µM (inactive)"}, {"measurement": "EC50", "setting": "[10]", "result": "> 99 µM (inactive)"}, {"measurement": "EC50", "setting": "[11]", "result": "> 99 µM (inactive)"}]}
{"smiles": "Cc1ccc(OCc2ccc(Br)cc2)c([N+](=O)[O-])n1", "values": [{"measurement": "EC50", "setting": "[12]", "result": "> 67.5 µM (inactive)"}]}
{"smiles": "Cc1cccc(C(=O)NCC(=O)NNC(=O)c2ccccc2O)c1", "values": [{"measurement": "IC50", "setting": "Albumin", "result": "> 94 µM (inactive)"}]}
{"smiles": "CN(C)CCN(C(=O)c1ccc2ccccc2c1)c1nc2cc3c(cc2s1)OCO3", "values": [{"measurement": "AC50", "setting": "[13]", "result": "28.3 µM (active)"}]}
{"smiles": "COc1ccccc1CCn1cnc(-c2ccc(Cl)cc2)c1CC(C)C", "values": [{"measurement": "AC50", "setting": "[1]", "result": "31.2 µM (active)"}, {"measurement": "IC50", "setting": "[14]", "result": "6.55 µM (active)"}, {"measurement": "IC50", "setting": "cells [15]", "result": "14.2 µM (inactive)"}, {"measurement": "EC50", "setting": "[16]", "result": "2.37 µM (active)"}, {"measurement": "AC50", "setting": "[5]", "result": "19 µM (active)"}, {"measurement": "EC50", "setting": "cells [17]", "result": "> 30 µM (inactive)"}, {"measurement": "AC50", "setting": "[6]", "result": "> 52 µM (inactive)"}, {"measurement": "AC50", "setting": "[7]", "result": "17.7 µM (active)"}, {"measurement": "AC50", "setting": "[8]", "result": "23.2 µM (active)"}]}
{"smiles": "CO[C@H]1CN(C)C(=O)c2cc(NC(=O)c3ccc(-c4ccccc4)cc3)ccc2OC[C@H](C)NC[C@H]1C", "values": [{"measurement": "AC50", "setting": "[18]", "result": "5.36 µM (active)"}, {"measurement": "AC50", "setting": "[19]", "result": "10.1 µM (active)"}]}
{"smiles": "COc1cccc(S(=O)(=O)Nc2ccc3c(c2)[C@@H]2C[C@H](CC(=O)NCc4ccc(Cl)cc4)O[C@@H](CO)[C@@H]2O3)c1", "values": [{"measurement": "AC50", "setting": "[18]", "result": "5.66 µM (active)"}, {"measurement": "AC50", "setting": "[19]", "result": "> 39 µM (inactive)"}]}
{"smiles": "Fc1ccc(Nc2nc(-c3ccncc3)cs2)cc1", "values": [{"measurement": "IC50", "setting": "[20]", "result": "> 83.2 µM (inactive)"}, {"measurement": "IC50", "setting": "[21]", "result": "> 109 µM (inactive)"}]}
{"smiles": "Cn1nnnc1SCC1=C(C(=O)O)N2C(=O)[C@@H](NC(=O)[C@H](O)c3ccccc3)[C@H]2SC1", "note": "[CEFAMANDOLE SODIUM]", "values": [{"measurement": "IC50", "setting": "[22]", "result": "0.1 µM (active)"}, {"measurement": "IC50", "setting": "Leucine aminopeptidase", "result": "12.1 µM (active)"}]}
